#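 A five-concentration, 48-hour dose response in 96-well plates underlies each endpoint, interpolated linearly between surrounding concentrations. At the TGI there is no net growth.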
# Assays:
# Assay in all cases: NCI-60 cell line screen, 48 h
# M19-MEL melanoma = system: M19-MEL melanoma
# HOP-62 NSCLC = system: HOP-62 NSCLC
# MOLT-4 leukemia = system: MOLT-4 leukemia
# HOP-92 NSCLC = system: HOP-92 NSCLC
# 786-0 renal = system: 786-0 renal
# SNB-75 CNS = system: SNB-75 CNS
# COLO 205 colon = system: COLO 205 colon
# EKVX NSCLC = system: EKVX NSCLC
# HCT-15 colon = system: HCT-15 colon
# MALME-3M melanoma = system: MALME-3M melanoma
# SK-OV-3 ovarian = system: SK-OV-3 ovarian
# RPMI-8226 leukemia = system: RPMI-8226 leukemia
# UO-31 renal = system: UO-31 renal
# UACC-62 melanoma = system: UACC-62 melanoma
# NCI-H23 lung = system: NCI-H23 lung
# SK-MEL-5 melanoma = system: SK-MEL-5 melanoma
# ACHN renal = system: ACHN renal
# RXF 393 renal = system: RXF 393 renal
# SR leukemia = system: SR leukemia
# DMS 114 small cell lung = system: DMS 114 small cell lung
# XF 498 CNS = system: XF 498 CNS
# SW-620 colon = system: SW-620 colon
# NCI-H522 lung = system: NCI-H522 lung
# HT29 colon = system: HT29 colon
# TK-10 renal = system: TK-10 renal
# A498 renal = system: A498 renal
# KM12 colon = system: KM12 colon
# LOX IMVI melanoma = system: LOX IMVI melanoma
# LXFL 529 NSCLC = system: LXFL 529 NSCLC
# IGROV1 ovarian = system: IGROV1 ovarian
# SF-539 CNS = system: SF-539 CNS
# OVCAR-5 ovarian = system: OVCAR-5 ovarian
# NCI-H226 lung = system: NCI-H226 lung
# NCI-H460 lung = system: NCI-H460 lung
# SNB-19 CNS = system: SNB-19 CNS
# SN12C renal = system: SN12C renal
# SNB-78 CNS = system: SNB-78 CNS
# SK-MEL-28 melanoma = system: SK-MEL-28 melanoma
# HCT-116 colon = system: HCT-116 colon
# DLD-1 colon = system: DLD-1 colon
# CCRF-CEM leukemia = system: CCRF-CEM leukemia
# HL-60(TB) leukemia = system: HL-60(TB) leukemia
# SF-295 CNS = system: SF-295 CNS
# OVCAR-4 ovarian = system: OVCAR-4 ovarian
# KM20L2 colon = system: KM20L2 colon
# K-562 leukemia = system: K-562 leukemia
# U251 CNS = system: U251 CNS
# HCC-2998 colon = system: HCC-2998 colon
# SF-268 CNS = system: SF-268 CNS
# A549 NSCLC = system: A549 NSCLC
# M14 melanoma = system: M14 melanoma
# UACC-257 melanoma = system: UACC-257 melanoma
# OVCAR-3 ovarian = system: OVCAR-3 ovarian
# CAKI-1 renal = system: CAKI-1 renal
# OVCAR-8 ovarian = system: OVCAR-8 ovarian
# SK-MEL-2 melanoma = system: SK-MEL-2 melanoma
# DMS 273 small cell lung = system: DMS 273 small cell lung
smiles,measurement,setting,value
O=C1NC2C(=O)N(Cc3ccccc3)C(=O)C2N1 (configuration not stated),TGI,M19-MEL melanoma,> 100 µM
same,TGI,HOP-62 NSCLC,> 100 µM
same,TGI,MOLT-4 leukemia,> 100 µM
same,TGI,HOP-92 NSCLC,> 100 µM
same,TGI,786-0 renal,> 100 µM
same,TGI,SNB-75 CNS,> 100 µM
same,TGI,COLO 205 colon,> 100 µM
same,TGI,EKVX NSCLC,> 100 µM
same,TGI,HCT-15 colon,> 100 µM
same,TGI,MALME-3M melanoma,> 100 µM
same,TGI,SK-OV-3 ovarian,> 100 µM
same,TGI,RPMI-8226 leukemia,> 100 µM
same,TGI,UO-31 renal,> 100 µM
same,TGI,UACC-62 melanoma,> 100 µM
same,TGI,NCI-H23 lung,> 100 µM
same,TGI,SK-MEL-5 melanoma,> 100 µM
same,TGI,ACHN renal,> 100 µM
same,TGI,RXF 393 renal,> 100 µM
same,TGI,SR leukemia,> 100 µM
same,TGI,DMS 114 small cell lung,> 100 µM
same,TGI,XF 498 CNS,> 100 µM
same,TGI,SW-620 colon,> 100 µM
same,TGI,NCI-H522 lung,> 100 µM
same,TGI,HT29 colon,> 100 µM
same,TGI,TK-10 renal,> 100 µM
same,TGI,A498 renal,> 100 µM
same,TGI,KM12 colon,> 100 µM
same,TGI,LOX IMVI melanoma,> 100 µM
same,TGI,LXFL 529 NSCLC,> 100 µM
same,TGI,IGROV1 ovarian,> 100 µM
same,TGI,SF-539 CNS,> 100 µM
same,TGI,OVCAR-5 ovarian,> 100 µM
same,TGI,NCI-H226 lung,> 100 µM
same,TGI,NCI-H460 lung,> 100 µM
same,TGI,SNB-19 CNS,> 100 µM
same,TGI,SN12C renal,> 100 µM
same,TGI,SNB-78 CNS,> 100 µM
same,TGI,SK-MEL-28 melanoma,> 100 µM
same,TGI,HCT-116 colon,> 100 µM
same,TGI,DLD-1 colon,> 100 µM
same,TGI,CCRF-CEM leukemia,> 100 µM
same,TGI,HL-60(TB) leukemia,> 100 µM
same,TGI,SF-295 CNS,> 100 µM
same,TGI,OVCAR-4 ovarian,> 100 µM
same,TGI,KM20L2 colon,> 100 µM
same,TGI,K-562 leukemia,> 100 µM
same,TGI,U251 CNS,> 100 µM
same,TGI,HCC-2998 colon,> 100 µM
same,TGI,SF-268 CNS,> 100 µM
same,TGI,A549 NSCLC,> 100 µM
same,TGI,M14 melanoma,> 100 µM
same,TGI,UACC-257 melanoma,> 100 µM
same,TGI,OVCAR-3 ovarian,> 100 µM
same,TGI,CAKI-1 renal,> 100 µM
Cc1ccc(C(=O)Nc2ccccc2)cc1N=NN(C)C,TGI,M19-MEL melanoma,> 100 µM
same,TGI,HOP-62 NSCLC,> 100 µM
same,TGI,HOP-92 NSCLC,> 100 µM
same,TGI,786-0 renal,44 µM
same,TGI,EKVX NSCLC,> 100 µM
same,TGI,HCT-15 colon,> 100 µM
same,TGI,UO-31 renal,> 100 µM
same,TGI,UACC-62 melanoma,> 100 µM
same,TGI,NCI-H23 lung,> 100 µM
same,TGI,SK-MEL-5 melanoma,> 100 µM
same,TGI,ACHN renal,> 100 µM
same,TGI,SW-620 colon,> 100 µM
same,TGI,OVCAR-8 ovarian,> 100 µM
same,TGI,NCI-H522 lung,> 100 µM
same,TGI,HT29 colon,> 100 µM
same,TGI,SK-MEL-2 melanoma,> 100 µM
same,TGI,TK-10 renal,> 100 µM
same,TGI,KM12 colon,> 100 µM
same,TGI,LOX IMVI melanoma,> 100 µM
same,TGI,DMS 273 small cell lung,> 100 µM
same,TGI,LXFL 529 NSCLC,> 100 µM
same,TGI,IGROV1 ovarian,> 100 µM
same,TGI,SF-539 CNS,> 100 µM
same,TGI,NCI-H460 lung,> 100 µM
same,TGI,SNB-19 CNS,> 100 µM
same,TGI,SN12C renal,> 100 µM
same,TGI,SNB-78 CNS,> 100 µM
same,TGI,SK-MEL-28 melanoma,> 100 µM
same,TGI,HCT-116 colon,> 100 µM
same,TGI,DLD-1 colon,> 100 µM
same,TGI,SF-295 CNS,> 100 µM
same,TGI,OVCAR-4 ovarian,> 100 µM
same,TGI,U251 CNS,> 100 µM
same,TGI,HCC-2998 colon,> 100 µM
same,TGI,SF-268 CNS,> 100 µM
same,TGI,A549 NSCLC,> 100 µM
same,TGI,M14 melanoma,> 100 µM
same,TGI,UACC-257 melanoma,> 100 µM
same,TGI,OVCAR-3 ovarian,> 100 µM
same,TGI,CAKI-1 renal,> 100 µM
COc1ccc(-c2cc(=O)c3c(OC)cccc3o2)c(OC)c1OC,TGI,M19-MEL melanoma,> 100 µM
same,TGI,HOP-62 NSCLC,> 100 µM
same,TGI,MOLT-4 leukemia,> 100 µM
same,TGI,HOP-92 NSCLC,> 100 µM
same,TGI,786-0 renal,> 100 µM
same,TGI,SNB-75 CNS,74.4 µM
same,TGI,COLO 205 colon,> 100 µM
same,TGI,HCT-15 colon,> 100 µM
same,TGI,MALME-3M melanoma,> 100 µM
same,TGI,SK-OV-3 ovarian,> 100 µM
same,TGI,RPMI-8226 leukemia,> 100 µM
same,TGI,UACC-62 melanoma,> 100 µM
same,TGI,NCI-H23 lung,> 100 µM
same,TGI,SK-MEL-5 melanoma,> 100 µM
same,TGI,ACHN renal,> 100 µM
same,TGI,RXF 393 renal,> 100 µM
same,TGI,SR leukemia,> 100 µM
same,TGI,DMS 114 small cell lung,> 100 µM
same,TGI,SW-620 colon,> 100 µM
same,TGI,OVCAR-8 ovarian,> 100 µM
same,TGI,NCI-H522 lung,> 100 µM
same,TGI,HT29 colon,> 100 µM
same,TGI,SK-MEL-2 melanoma,> 100 µM
same,TGI,TK-10 renal,> 100 µM
same,TGI,A498 renal,> 100 µM
same,TGI,KM12 colon,> 100 µM
same,TGI,LOX IMVI melanoma,> 100 µM
same,TGI,DMS 273 small cell lung,> 100 µM
same,TGI,LXFL 529 NSCLC,> 100 µM
same,TGI,IGROV1 ovarian,> 100 µM
same,TGI,SF-539 CNS,> 100 µM
same,TGI,OVCAR-5 ovarian,> 100 µM
same,TGI,NCI-H226 lung,> 100 µM
same,TGI,NCI-H460 lung,> 100 µM
same,TGI,SN12C renal,> 100 µM
same,TGI,SNB-78 CNS,> 100 µM
same,TGI,SK-MEL-28 melanoma,> 100 µM
same,TGI,HCT-116 colon,> 100 µM
same,TGI,DLD-1 colon,> 100 µM
same,TGI,CCRF-CEM leukemia,> 100 µM
same,TGI,HL-60(TB) leukemia,> 100 µM
same,TGI,SF-295 CNS,> 100 µM
same,TGI,OVCAR-4 ovarian,> 100 µM
same,TGI,KM20L2 colon,> 100 µM
same,TGI,K-562 leukemia,> 100 µM
same,TGI,U251 CNS,> 100 µM
same,TGI,HCC-2998 colon,> 100 µM
same,TGI,SF-268 CNS,> 100 µM
same,TGI,A549 NSCLC,> 100 µM
same,TGI,M14 melanoma,> 100 µM
same,TGI,UACC-257 melanoma,> 100 µM
same,TGI,OVCAR-3 ovarian,> 100 µM
same,TGI,CAKI-1 renal,> 100 µM

# From PubChem BioAssay (NCI)
